In patent publication US20220298115A1, “SMALL MOLECULE INHIBITORS OF ACETYL COENZYME A SYNTHETASE SHORT CHAIN 2 (ACSS2)” (Curadev Pharma Pvt. Ltd., priority 2019, published 2022) one finds IC50 data, which are given here for 28 compounds.

Like-named read-outs stand apart in the source and are kept apart here.

Experiment [1] addresses T1, human ACSS2 (Homo sapiens, UniProt Q9NR19).
T1 construct: The cytosolic fraction of BT474 cells was used as a source of the ACSS2 enzyme; endogenous in cells; host or cells: BT474 cells (cytosolic fraction)
Kind of experiment: ACSS2 enzyme assay (acetyl-CoA formation, LC-MS/MS). In kind it is biochemical. Conditions: cytosolic fraction of BT474 cells as ACSS2 source; 100 μM acetate, CoA and ATP; 2 h at 25° C.; read-out: Enzyme Activity (IC50 range). The protocol: Novel compounds were screened in a human ACSS2 enzyme assay. Briefly, the ACSS2 enzyme reaction was monitored by directly measuring acetyl-CoA formation. The cytosolic fraction of BT474 cells was used as a source of the ACSS2 enzyme. A short protocol for this assay is provided below.
Preparation of Cytosolic Fraction from BT474 Cells
9×10^6 cells were harvested by trypsinization followed by centrifugation. The cell pellet was washed with PBS and dissolved in 500 μl STM buffer (50 mM Tris-HCl pH7.4, 250 mM sucrose, 5 mM MgCl2 & protease-phosphatase inhibitor cocktail) and homogenized at 600-1000 rpm for 1 min. on ice followed by incubation for 30 min. with intermittent vortexing. Supernatant was collected by centrifugation at 800 g for 15 min. at 4° C. Cytosolic fraction was prepared by further centrifugation of the supernatant at 12000 g for 15 min. at 4° C. Total protein content of the cytosolic fraction was estimated & diluted to 1 mg/ml concentration in storage buffer (25 mM Tris-HCl pH7.4, 1 mM MgCl2, 1 mM DTT & 10% glycerol) and stored at −80° C. for further use.
100 ng of cytosolic fraction in buffer composed of 25 mM Tris-HCl pH7.4 1 mM MgCl2, 1 mM DTT & 0.05% Tween20 was preincubated with desired concentrations of novel compounds for 5 min. maintaining 1% DMSO. Reaction was started with addition of substrate mix (100 μM of acetate, CoA and ATP) and incubated for 2 h at 25° C. with constant shaking at 500 rpm. Post incubation the reaction was terminated by addition of 10% TCA followed by 5 fold dilution in water. The reaction mixture was centrifuged at 800 g for 10 min. at RT and acetyl-CoA detected in supernatant by LC-MS/MS (QTrap5500 ABSCIEX).

Experiment [2] relates to [14C] acetate incorporation in macromolecules, BT474 cells. Kind of experiment: Cell based [14C] acetate incorporation assay. The conditions noted are these: read-out: Cellular Activity (IC50 range). The protocol:
Cell Based [^14C] Acetate Incorporation Assay
In the cellular assay, ACSS2 inhibitors were screened against [^14C] acetate incorporation in macromolecules. 4×10^4 BT474 cells were plated in 96 well plates in growth media composed of DMEM & 10% FBS and incubated overnight in a 37° C., 5% CO2 incubator. The following day the cells were washed in HBSS and the assay was performed in 100 μl of HBSS. 50 μl of 4× compound in 4% DMSO was added to the cells and preincubated for 10 min. at 37° C. 50 μl of acetate solution (0.1 μCi ^14C acetate+10 μM ^12C acetate) was added to each well of the plate and incubated for 3 h in a 37° C., 5% CO2 incubator. Following incubation, cells were harvested with water on polyethylene imine (PEI) presoaked GF/C filtermat, air dried and radioactive count were recorded in Trilux micro beta Liquid Scintillation Counter (PerkinElmer).

Where [3] appears, read: Homo sapiens, BT-474, 3 h at 37° C.

Usually IC50 stands for the concentration at which inhibition is half-maximal.

T1 sequence (Q9NR19 whole entry): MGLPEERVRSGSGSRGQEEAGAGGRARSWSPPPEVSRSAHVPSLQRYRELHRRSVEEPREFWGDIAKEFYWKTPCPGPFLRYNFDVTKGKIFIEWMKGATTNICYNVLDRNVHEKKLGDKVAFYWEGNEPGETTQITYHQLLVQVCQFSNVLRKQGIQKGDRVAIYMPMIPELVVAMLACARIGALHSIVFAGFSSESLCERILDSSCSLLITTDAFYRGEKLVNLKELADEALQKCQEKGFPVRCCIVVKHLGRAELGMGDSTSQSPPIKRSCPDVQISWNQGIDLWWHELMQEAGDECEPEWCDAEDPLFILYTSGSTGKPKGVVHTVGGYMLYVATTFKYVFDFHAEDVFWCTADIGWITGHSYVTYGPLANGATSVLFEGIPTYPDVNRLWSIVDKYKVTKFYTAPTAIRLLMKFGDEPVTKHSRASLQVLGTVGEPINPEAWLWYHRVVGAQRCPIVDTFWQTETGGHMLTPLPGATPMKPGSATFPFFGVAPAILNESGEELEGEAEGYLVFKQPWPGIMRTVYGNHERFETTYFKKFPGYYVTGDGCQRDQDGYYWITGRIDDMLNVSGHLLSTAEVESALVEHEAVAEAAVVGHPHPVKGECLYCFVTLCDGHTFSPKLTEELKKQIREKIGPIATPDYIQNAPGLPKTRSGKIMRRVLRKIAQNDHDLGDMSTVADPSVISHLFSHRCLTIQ

Consider `CCC(O)CNC(=O)Nc1ccc2nc(-c3ccccc3)c(-c3ccccc3)c(NC(C)=O)c2c1` (stereo not shown) [Example 84, N-(6-(3-(2-hydroxybutyl)ureido)-2,3-diphenylquinolin-4-yl)acetamide], for which the half-maximal inhibitory concentration (IC50) in experiment [1] and in experiment [2] (setting [3]) was below 100 nM throughout.

As to `CC[C@@H](O)CNC(=O)Nc1ccc2nc(-c3ccccc3)c(C)c(C(=O)NCc3cnn(C)c3)c2c1` [Example 114, (R)-6-(3-(2-hydroxybutyl)ureido)-3-methyl-N-((1-methyl-1H-pyrazol-4-yl)methyl)-2-phenylquinoline-4-carboxamide], the 50% inhibitory concentration (IC50) in experiment [1] is below 100 nM; in experiment [2] (setting [3]) it was at most 1000 nM. Consider `CC[C@H](O)CNC(=O)Nc1ccc2nc(-c3ccccc3)c(-c3ccccc3F)cc2c1` [Example 67, (S)-1-(3-(2-fluorophenyl)-2-phenylquinolin-6-yl)-3-(2-hydroxybutyl) urea], for which the IC50 in experiment [1] and in experiment [2] (setting [3]) was below 100 nM each time. As for `CCC(O)CNC(=O)Nc1ccc2nc(-c3ccccc3)c(-c3ccccc3)c(C(=O)N(C)C)c2c1` (stereo not shown) [Example 63, 6-(3-(2-hydroxybutyl)ureido)-N,N-dimethyl-2,3-diphenylquino-line-4-carboxamide], the IC50 in experiment [1] and in experiment [2] (setting [3]) was below 100 nM in each case. `CN1CCC(NC(=O)Nc2ccc3nc(-c4ccccc4)c(-c4ccccc4)cc3c2)C1` (stereo not shown) [Example 141, 1-(2,3-diphenylquinolin-6-yl)-3-(1-methylpyrrolidin-3-yl)urea]: the IC50 was at most 10000 nM in experiment [1] and above 10000 nM in experiment [2] (setting [3]). The corresponding values for `CCC(O)CNC(=O)Nc1ccc2nc(C)c(-c3ccccc3)c(C#N)c2c1` (stereo not shown) [Example 98, 1-(4-cyano-2-methyl-3-phenylquinolin-6-yl)-3-(2-hydroxybutyl) urea] are at most 1000 nM and below 100 nM. On the same counts, the results for `CCC(O)CNC(=O)Nc1ccc2nc(-c3ccccc3NC(C)=O)c(-c3ccccc3F)cc2c1` (stereo not shown) [Example 51, N-(2-(3-(2-fluorophenyl)-6-(3-(2-hydroxybutyl)ureido)quinolin-2-yl)phenyl)acet-amide] are below 100 nM and below 100 nM. On to `CCC(O)CNC(=O)Nc1ccc2nc(C)cc(C(N)=O)c2c1` (stereo not shown) [Example 74, 6-(3-(2-hydroxybutyl)ureido)-2-methylquinoline-4-carboxamide], for which the half-inhibitory concentration (IC50) in experiment [1] was at most 10000 nM; in experiment [2] (setting [3]), above 10000 nM. `CCC(O)CNC(=O)Nc1ccc2nc(-c3ccccc3)c(-c3ccccc3)c(C(=O)NC3CC3)c2c1` (stereo not shown) [Example 64, N-cyclopropyl-6-(3-(2-hydroxybutyl)ureido)-2,3-diphenylquino-line-4-carboxamide]: the IC50 in experiment [1] and in experiment [2] (setting [3]) was below 100 nM throughout. Turning to `CC[C@@H](O)CNC(=O)Nc1ccc2nc(-c3ccccc3)c(-c3ccccc3)c(NC(=O)C3CC3)c2c1` [Example 92, (R)-N-(6-(3-(2-hydroxybutyl)ureido)-2,3-diphenylquinolin-4-yl)cyclopropane-carboxamide], the 50% inhibitory concentration (IC50) in experiment [1] and in experiment [2] (setting [3]) was below 100 nM throughout. Turning to `COC1CCN(C(=O)Nc2ccc3nc(-c4ccccc4)c(-c4ccccc4)cc3c2)C1` (stereo not shown) [Example 138, N-(2,3-diphenylquinolin-6-yl)-3-methoxypyrrol-idine-1-carboxamide], the IC50 in experiment [1] and in experiment [2] (setting [3]) was below 100 nM throughout. Consider `CCC(O)CNC(=O)Nc1ccc2nc(C)c(-c3ccccc3)c(C(N)=O)c2c1` (stereo not shown) [Example 66, 6-(3-(2-hydroxybutyl)ureido)-2-methyl-3-phenylquinoline-4-carboxamide], for which the results for the IC50 in experiment [1] and in experiment [2] (setting [3]) were below 100 nM and at most 1000 nM, respectively. Regarding `CCC(O)CNC(=O)Nc1ccc2nc(C(F)(F)F)c(-c3ccccc3)cc2c1` (stereo not shown) [Example 88, 1-(2-hydroxybutyl)-3-(3-phenyl-2-(trifluorometh-yl)quinolin-6-yl)urea], the IC50 in experiment [1] was at most 10000 nM; in experiment [2] (setting [3]), above 10000 nM. On the same counts, the results for `CC[C@@H](O)CNC(=O)Nc1ccc2nc(C)c(-c3ccccc3F)cc2c1-c1ccc[nH]c1=O` [Example 111, (R)-1-(3-(2-fluorophenyl)-2-methyl-5-(2-oxo-1,2-dihydropyridin-3-yl)quinolin-6-yl)-3-(2-hydroxybutyl) urea] are below 100 nM and at most 1000 nM. Regarding `CCC(O)CNC(=O)Nc1ccc2nc(C)c(-c3ccccc3F)cc2c1` (stereo not shown) [Example 75, 1-(3-(2-fluorophenyl)-2-methylquinolin-6-yl)-3-(2-hydroxybutyl) urea], the IC50 in experiment [1] and in experiment [2] (setting [3]) was below 100 nM each time. With `CCC(O)CNC(=O)Nc1ccc2nc(C)c(-c3ccccc3)cc2c1Br` (stereo not shown) [Example 87, 1-(5-bromo-2-methyl-3-phenylquinolin-6-yl)-3-(2-hydroxybutyl) urea], the half-inhibitory concentration (IC50) in experiment [1] and in experiment [2] (setting [3]) was below 100 nM throughout. In the case of `CC[C@@H](O)CNC(=O)Nc1cc2cc(-c3ccccc3)c(-c3ccccc3)nc2cc1F` [Example 90, (R)-1-(7-fluoro-2,3-diphenylquinolin-6-yl)-3-(2-hydroxybutyl) urea], the IC50 in experiment [1] and in experiment [2] (setting [3]) was at most 1000 nM each time. `CCC(O)CNC(=O)Nc1ccc2nc(C)c(-c3ccccc3Cl)cc2c1` (stereo not shown) [Example 81, 1-(3-(2-chlorophenyl)-2-methylquinolin-6-yl)-3-(2-hydroxybutyl) urea]: the half-maximal inhibitory concentration (IC50) in experiment [1] and in experiment [2] (setting [3]) was below 100 nM in each case. Regarding `CCC(O)CNC(=O)Nc1ccc2nc(-c3ccccn3)c(-c3ccccc3)cc2c1` (stereo not shown) [Example 38, 1-(2-hydroxybutyl)-3-(3-phenyl-2-(pyridin-2-yl)quinolin-6-yl)urea], the concentration for half-maximal inhibition (IC50) in experiment [1] is below 100 nM; in experiment [2] (setting [3]) it was at most 1000 nM. On the same counts, the results for `CCC(F)(F)CNC(=O)Nc1ccc2nc(-c3ccccc3)c(-c3ccccc3)c(C(N)=O)c2c1` [Example 106, 6-(3-(2,2-difluorobutyl)ureido)-2,3-diphenylquino-line-4-carboxamide] are below 100 nM and below 100 nM.

For the compound `CCCCCC(=O)Nc1ccc2nc(-c3ccccc3OC)c(-c3ccccc3OC)cc2c1` [Example 119, N-(2,3-bis(2-methoxy-phenyl)quinolin-6-yl) hexanamide], the IC50 in experiment [1] and in experiment [2] (setting [3]) was below 100 nM each time. Regarding `CC[C@@H](O)CNC(=O)Nc1ccc2nc(-c3ccccc3)c(C)c(C(=O)NC)c2c1` [Example 108, (R)-6-(3-(2-hydroxybutyl)ureido)-N,3-dimethyl-2-phenylquinoline-4-carboxamide], the IC50 in experiment [1] and in experiment [2] (setting [3]) was below 100 nM each time. Turning to `O=C(Nc1ccc2nc(-c3ccccc3)c(-c3ccccc3)cc2c1)NC1CCOCC1` [Example 137, 1-(2,3-diphenylquinolin-6-yl)-3-(tetrahydro-2H-pyran-4-yl)urea], the IC50 in experiment [1] and in experiment [2] (setting [3]) was at most 1000 nM in each case. With `CC[C@H](O)CNC(=O)Nc1ccc2nc(-c3ccccc3OC)c(-c3ccccc3F)cc2c1` [Example 36, (S)-1-(3-(2-fluorophenyl)-2-(2-methoxyphenyl)quinolin-6-yl)-3-(2-hydroxybutyl) urea], the IC50 in experiment [1] and in experiment [2] (setting [3]) was below 100 nM each time. Turning to `CCCCNC(=O)Nc1ccc2nc(-c3ccccc3)c(-c3ccccc3F)cc2c1` [Example 16, 1-butyl-3-(3-(2-fluorophenyl)-2-phenylquinolin-6-yl)urea], the IC50 in experiment [1] and in experiment [2] (setting [3]) was below 100 nM in each case.

On to `CCCCCC(=O)Nc1ccc2nc(-c3ccccc3)c(-c3ccccc3)cc2c1` [Example 118, N-(2,3-diphenyl-quinolin-6-yl) hexanamide], for which the IC50 in experiment [1] and in experiment [2] (setting [3]) was at most 1000 nM in each case. With `CCC(=O)CCC(=O)Nc1ccc2nc(-c3ccccc3F)c(-c3ccccc3F)cc2c1` [Example 124, N-(2,3-Bis(2-fluorophenyl)quinolin-6-yl)-4-oxohexanamide], the IC50 in experiment [1] and in experiment [2] (setting [3]) was below 100 nM throughout. Take `CC[C@H](O)CNC(=O)Nc1ccc2nc(-c3ccccc3)c(-c3ccccc3)cc2c1` [Example 68, (S)-1-(2,3-diphenylquino-lin-6-yl)-3-(2-hydroxybutyl) urea]: the IC50 in experiment [2] (3 h at 37° C.) is below 100 nM.
